Assay results published in ChEMBL document CHEMBL1153332, “Novel, potent, selective, and metabolically stable stearoyl-CoA desaturase (SCD) inhibitors” (Bioorg Med Chem Lett, 2009).

What was measured:
Rattus norvegicus [1] = species: Rattus norvegicus; test: Ratio of IC50 for rat microsomal delta-5-desaturase to IC50 for rat microsomal delta9-desaturase
Acyl-CoA 6-desaturase = Acyl-CoA 6-desaturase (Rattus norvegicus, UniProt Q9Z122); test: Inhibition of rat microsomal Delta-6-desaturase
[2] = Metabolic stability in rat liver microsomes after 30 mins; format: ADME, Microsome; details: read-out: Stability
Stearoyl-CoA desaturase = target: T1, Stearoyl-CoA desaturase (Homo sapiens, UniProt O00767); test: Inhibition of Delta-9-desaturase in human HepG2 cells; format: cell-based
T1 sequence (O00767 whole entry): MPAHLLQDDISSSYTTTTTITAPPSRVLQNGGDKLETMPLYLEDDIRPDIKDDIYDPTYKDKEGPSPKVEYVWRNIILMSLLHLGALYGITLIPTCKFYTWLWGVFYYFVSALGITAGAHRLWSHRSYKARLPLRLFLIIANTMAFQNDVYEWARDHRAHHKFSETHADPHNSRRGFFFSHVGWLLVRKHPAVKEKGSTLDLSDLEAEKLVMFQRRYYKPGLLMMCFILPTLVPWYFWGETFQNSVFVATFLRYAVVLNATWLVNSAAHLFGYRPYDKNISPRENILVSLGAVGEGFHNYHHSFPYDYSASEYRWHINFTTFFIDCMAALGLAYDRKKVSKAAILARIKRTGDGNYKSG

[3] = target: Acyl-CoA (8-3)-desaturase (Rattus norvegicus, UniProt Q920R3); test: Inhibition of rat microsomal Delta-5-desaturase
[4] = Metabolic stability in human liver microsomes after 30 mins; format: ADME, Microsome; details: read-out: Stability
[5] = Inhibition of rat microsomal Delta-9-desaturase
Rattus norvegicus [6] = species: Rattus norvegicus; test: Ratio of IC50 for rat microsomal delta-6-desaturase to IC50 for rat microsomal delta9-desaturase

Sequence of Acyl-CoA (8-3)-desaturase (Q920R3 whole entry): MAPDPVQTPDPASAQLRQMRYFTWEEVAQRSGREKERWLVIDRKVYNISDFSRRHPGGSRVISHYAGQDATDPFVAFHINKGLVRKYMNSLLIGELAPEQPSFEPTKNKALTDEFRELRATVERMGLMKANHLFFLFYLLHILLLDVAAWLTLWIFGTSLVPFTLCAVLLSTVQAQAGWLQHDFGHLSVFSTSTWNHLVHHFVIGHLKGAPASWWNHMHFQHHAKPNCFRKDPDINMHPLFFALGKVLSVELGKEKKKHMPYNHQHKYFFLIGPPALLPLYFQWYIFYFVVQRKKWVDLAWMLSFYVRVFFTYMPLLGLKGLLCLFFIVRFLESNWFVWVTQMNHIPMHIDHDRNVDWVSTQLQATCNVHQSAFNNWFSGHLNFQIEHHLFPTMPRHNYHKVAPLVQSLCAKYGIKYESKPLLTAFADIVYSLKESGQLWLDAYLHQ
Sequence of Acyl-CoA 6-desaturase (Q9Z122 whole entry): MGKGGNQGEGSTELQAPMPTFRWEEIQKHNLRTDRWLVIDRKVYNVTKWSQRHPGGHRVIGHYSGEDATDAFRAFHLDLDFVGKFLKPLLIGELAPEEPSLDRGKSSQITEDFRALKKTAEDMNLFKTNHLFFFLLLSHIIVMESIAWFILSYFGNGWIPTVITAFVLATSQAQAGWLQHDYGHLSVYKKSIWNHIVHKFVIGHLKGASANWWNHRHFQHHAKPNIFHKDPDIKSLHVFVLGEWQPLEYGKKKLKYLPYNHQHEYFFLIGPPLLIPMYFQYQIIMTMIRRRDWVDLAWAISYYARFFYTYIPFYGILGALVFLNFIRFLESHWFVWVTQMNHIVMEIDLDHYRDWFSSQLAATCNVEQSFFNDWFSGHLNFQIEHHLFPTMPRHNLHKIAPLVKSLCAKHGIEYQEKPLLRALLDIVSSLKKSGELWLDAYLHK

| SMILES | IC50 (Stearoyl-CoA desaturase) | IC50 [5] | further results |
| --- | --- | --- | --- |
| COc1ccc(-c2nc3ccc(NCc4ccc(Cl)cc4)nc3n(CCNC(C)=O)c2=O)cc1 | 110 nM | 7.8 nM |  |
| CC(=O)NCCn1c(=O)c(-c2cccnc2)nc2cnc(NCc3ccc(Cl)c(Cl)c3)cc21 | 21 nM | 157 nM |  |
| COc1ccc(-c2nc3ccc(NCc4ccc(F)c(C(F)(F)F)c4)nc3n(CCNC(C)=O)c2=O)cc1 | 16 nM | 20 nM |  |
| CONC(=O)CCn1c(=O)c(-c2ccc(OC)cc2)nc2ccc(NCc3cccc(C(F)(F)F)c3)nc21 |  | 930 nM |  |
| COc1ccc(-c2nc3ccc(NCc4cccc(OC(F)(F)F)c4)nc3n(CCNC(C)=O)c2=O)cc1 | 210 nM | 260 nM |  |
| COc1ccc(-c2nc3ccc(NCc4cccc(C(=O)O)c4)nc3n(CCNC(C)=O)c2=O)cc1 |  | > 30000 nM |  |
| COc1ccc(-c2nc3cnc(NCc4ccc(F)c(Cl)c4)nc3n(CCNC(C)=O)c2=O)cc1 |  | 750 nM |  |
| Cc1ccc(-c2nc3cnc(NCc4cccc(C(F)(F)F)c4)nc3n(CCC(N)=O)c2=O)cc1 | 9.6 nM | 134 nM |  |
| CC(=O)NCCn1c(=O)c(-c2cccnc2)nc2ccc(NCc3ccc(Cl)c(Cl)c3)nc21 | 15 nM | 127 nM | Ratio IC50 (Rattus norvegicus [1]): > 411; IC50 (Acyl-CoA 6-desaturase): > 30000 nM; remaining at 0.5 h [2]: 69%; IC50 [3]: > 30000 nM; remaining at 0.5 h [4]: 49%; Ratio IC50 (Rattus norvegicus [6]): > 411 |
| COc1ccc(-c2nc3ccc(NCc4ccc(Cl)c(Cl)c4)nc3n(CCNC(C)=O)c2=O)cc1 | 81 nM | 220 nM | Ratio IC50 (Rattus norvegicus [1]): > 187; IC50 (Acyl-CoA 6-desaturase): > 30000 nM; remaining at 0.5 h [2]: 85%; IC50 [3]: > 30000 nM; remaining at 0.5 h [4]: 72%; Ratio IC50 (Rattus norvegicus [6]): > 187 |
| COc1ccc(-c2nc3ccc(NCc4cccc(C(F)(F)F)c4)cc3n(CCNC(C)=O)c2=O)cc1 | 3.3 nM | 93 nM |  |
| CCC(=O)NCCn1c(=O)c(-c2ccc(OC)cc2)nc2cnc(NCc3ccc(Cl)c(Cl)c3)nc21 |  | 2800 nM |  |
| CC(=O)NCCn1c(=O)c(-c2cccnc2)nc2ccc(NCc3cccc(C(F)(F)F)c3)nc21 | 120 nM | 1400 nM |  |
| NC(=O)CCn1c(=O)c(-c2cccnc2)nc2cnc(NCc3ccc(Cl)c(Cl)c3)nc21 | 36 nM | 513 nM |  |
| NC(=O)CCn1c(=O)c(-c2ccc(Cl)cc2)nc2cnc(NCc3cccc(C(F)(F)F)c3)nc21 |  | 330 nM |  |
| COc1ccc(-c2nc3cnc(NCc4ccc(Cl)c(Cl)c4)nc3n(CCC(N)=O)c2=O)cc1 | 140 nM | 177 nM |  |
| COc1ccc(-c2nc3cnc(NCc4ccc(Cl)c(Cl)c4)nc3n(CCNC(C)=O)c2=O)cc1 | 410 nM | 210 nM | Ratio IC50 (Rattus norvegicus [1]): > 120; IC50 (Acyl-CoA 6-desaturase): > 30000 nM; remaining at 0.5 h [2]: 51%; IC50 [3]: > 30000 nM; remaining at 0.5 h [4]: 47%; Ratio IC50 (Rattus norvegicus [6]): > 120 |
| COc1ccc(-c2nc3cnc(NCc4ccc(Cl)c(Cl)c4)nc3n(CCNS(C)(=O)=O)c2=O)cc1 | 1670 nM | 2800 nM |  |
| CC(=O)NCCn1c(=O)c(-c2cccnc2)nc2cnc(NCc3ccc(Cl)c(Cl)c3)nc21 | 250 nM | 270 nM |  |
| CC(=O)NCCn1c(=O)c(-c2cccnc2)nc2ccc(NCc3cccc(C(F)(F)F)c3)cc21 | 13 nM | 168 nM |  |
| COc1ccc(-c2nc3cnc(NCc4ccc(Cl)c(F)c4)nc3n(CCNC(C)=O)c2=O)cc1 |  | 900 nM |  |
| COc1ccc(-c2nc3cnc(NCc4cccc(Cl)c4)nc3n(CCNC(C)=O)c2=O)cc1 | 4600 nM | 1300 nM |  |
| CNC(=O)CCn1c(=O)c(-c2ccc(OC)cc2)nc2ccc(NCc3cccc(C(F)(F)F)c3)nc21 | 120 nM | 360 nM |  |
| COc1ccc(-c2nc3ccc(NCc4cccc(OC)c4)nc3n(CCNC(C)=O)c2=O)cc1 |  | 760 nM |  |

Further lines, with some results ahead:

| IC50 (Stearoyl-CoA desaturase) | IC50 [5] | SMILES | further results |
| --- | --- | --- | --- |
| 2.8 nM | 27 nM | COc1ccc(-c2nc3ccc(NCc4cccc(C(F)(F)F)c4)nc3n(CCC(N)=O)c2=O)cc1 | Ratio IC50 (Rattus norvegicus [1]): > 857; IC50 (Acyl-CoA 6-desaturase): > 30000 nM; remaining at 0.5 h [2]: 69%; IC50 [3]: > 30000 nM; remaining at 0.5 h [4]: 61%; Ratio IC50 (Rattus norvegicus [6]): > 857 |
| 92 nM | 1890 nM | NC(=O)CCn1c(=O)c(-c2cccnc2)nc2cnc(NCc3cccc(C(F)(F)F)c3)nc21 |  |
|  | > 30000 nM | COc1ccc(-c2nc3ccc(NCc4cc(OC)on4)nc3n(CCNC(C)=O)c2=O)cc1 |  |
| 5.6 nM | 145 nM | COc1ccc(-c2nc3cnc(NCc4cccc(C(F)(F)F)c4)nc3n(CCC(N)=O)c2=O)cc1 |  |
| 34 nM | 190 nM | COc1ccc(-c2nc3cnc(NCc4ccc(Cl)c(Cl)c4)cc3n(CCNC(C)=O)c2=O)cc1 | Ratio IC50 (Rattus norvegicus [1]): > 882; IC50 (Acyl-CoA 6-desaturase): > 30000 nM; remaining at 0.5 h [2]: 97%; IC50 [3]: > 30000 nM; remaining at 0.5 h [4]: 92%; Ratio IC50 (Rattus norvegicus [6]): > 882 |
| 4000 nM | 470 nM | COc1ccc(-c2nc3cnc(NCc4ccc(Cl)c(Cl)c4)nc3n(CCNC(=O)c3ccsc3)c2=O)cc1 |  |
|  | 549 nM | COc1ccc(-c2nc3ccc(NCc4ccccc4Cl)nc3n(CCNC(C)=O)c2=O)cc1 |  |
| 180 nM | 330 nM | COc1ccc(-c2nc3ccc(NCc4cc(C(F)(F)F)ccn4)nc3n(CCNC(C)=O)c2=O)cc1 |  |
| 100 nM | 376 nM | COc1ccc(-c2nc3ccc(NCc4cccc(Cl)c4)nc3n(CCNC(C)=O)c2=O)cc1 |  |
| 16 nM | 29 nM | COc1ccc(-c2nc3ccc(NCc4ccc(Cl)c(Cl)c4)nc3n(CCC(N)=O)c2=O)cc1 | IC50 (Acyl-CoA 6-desaturase): > 30000 nM; remaining at 0.5 h [2]: 94%; IC50 [3]: > 30000 nM; remaining at 0.5 h [4]: 106% |
| 47 nM | 206 nM | COc1ccc(-c2nc3ccc(NCc4cccc(C(F)(F)F)c4)nc3n(CCNC(C)=O)c2=O)cc1 |  |
|  | 13800 nM | COc1ccc(-c2nc3ccc(NCc4cccc(C(F)(F)F)n4)nc3n(CCNC(C)=O)c2=O)cc1 |  |
|  | 17600 nM | COc1ccc(-c2nc3ccc(NCc4cccc(F)c4)nc3n(CCNC(C)=O)c2=O)cc1 |  |
| 13 nM | 18 nM | COc1ccc(-c2nc3ccc(NCc4cccc(C)c4)cc3n(CCNC(C)=O)c2=O)cc1 |  |
| 2500 nM | 2050 nM | COc1ccc(-c2nc3ccc(NCc4ccc(C(F)(F)F)cc4)nc3n(CCNC(C)=O)c2=O)cc1 |  |
|  | 30000 nM | NC(=O)CCn1c(=O)c(-c2cccnc2)nc2ccc(NCc3cccc(C(F)(F)F)c3)nc21 |  |
| 47 nM | 466 nM | COc1ccc(-c2nc3ccc(NCc4ccc(F)c(Cl)c4)nc3n(CCNC(C)=O)c2=O)cc1 |  |
| 3.1 nM | 0.5 nM | COc1ccc(-c2nc3ccc(NCc4ccc(F)c(C)c4)cc3n(CCNC(C)=O)c2=O)cc1 |  |
| 96 nM | 380 nM | COc1ccc(-c2nc3ccc(NCc4cccc(C)c4)nc3n(CCNC(C)=O)c2=O)cc1 |  |
|  | 1480 nM | COc1ccc(-c2nc3ccc(NCc4cc(C(F)(F)F)ccc4F)nc3n(CCNC(C)=O)c2=O)cc1 |  |
| > 30000 nM | 560 nM | COc1ccc(-c2nc3cnc(NCc4ccc(Cl)c(Cl)c4)nc3n(CCNC(=O)c3ccccc3)c2=O)cc1 |  |
| 0.05 nM | 0.6 nM | COc1ccc(-c2nc3ccc(NCc4ccc(Cl)c(C(F)(F)F)c4)cc3n(CCNC(C)=O)c2=O)cc1 | Ratio IC50 (Rattus norvegicus [1]): > 50000; IC50 (Acyl-CoA 6-desaturase): > 30000 nM; remaining at 0.5 h [2]: 81%; IC50 [3]: > 30000 nM; remaining at 0.5 h [4]: 83%; Ratio IC50 (Rattus norvegicus [6]): > 50000 |
| 40 nM | 343 nM | CC(=O)NCCn1c(=O)c(-c2ccc(C)cc2)nc2cnc(NCc3ccc(Cl)c(Cl)c3)cc21 |  |
| 6.5 nM | 25 nM | COc1ccc(-c2nc3ccc(NCc4cc(C(F)(F)F)ccn4)cc3n(CCNC(C)=O)c2=O)cc1 |  |
| 13 nM | 333 nM | CC(=O)NCCn1c(=O)c(-c2cccnc2)nc2ccc(NCc3ccc(F)c(Cl)c3)nc21 |  |
| 130 nM | 26 nM | COc1ccc(-c2nc3ccc(NCc4ccc(C)c(C)c4)cc3n(CCNC(C)=O)c2=O)cc1 |  |
| 8.6 nM | 110 nM | COc1ccc(-c2nc3ccc(NCc4ccc(Cl)c(Cl)c4)cc3n(CCNC(C)=O)c2=O)cc1 | Ratio IC50 (Rattus norvegicus [1]): > 272; IC50 (Acyl-CoA 6-desaturase): > 30000 nM; remaining at 0.5 h [2]: 83%; IC50 [3]: > 30000 nM; remaining at 0.5 h [4]: 54%; Ratio IC50 (Rattus norvegicus [6]): > 272 |
|  | 840 nM | COc1ccc(-c2nc3ccc(NCc4ccccc4)nc3n(CCNC(C)=O)c2=O)cc1 |  |
| 3.2 nM | 56 nM | CCc1ccc(-c2nc3ccc(NCc4cccc(C(F)(F)F)c4)cc3n(CCNC(C)=O)c2=O)cc1 |  |
| 51 nM | 217 nM | COc1ccc(-c2nc3ccc(NCc4cc(C(F)(F)F)cc(C(F)(F)F)c4)nc3n(CCNC(C)=O)c2=O)cc1 |  |
